Measured values: US20260053171A1, “METHANOGEN INHIBITORS” (AGRIZERONZ LIMITED PARTNERSHIP, priority 2022, published 2026)

System: methane production in rumen fluid
Experiment: Rumen in vitro (RIV) assay, methane production from rumen fluid incubations
Type: cell-based, cattle
Conditions: for inhibition at 50 µM / inhibition at 10 µM / inhibition at 2 µM: Bos taurus, read-out: RIV % methane reduction +/− SD; for inhibition (methane, RIV positive control): 30 μM
Method in brief: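 Rumen fluid from two fistulated cattle diluted 12 ml in 48 ml buffer with ryegrass substrate, incubated in sealed bottles at 39° C for 24-48 h in duplicate. Inhibitors added in DMF (stocks 1000-fold above highest assay level); total gas, methane and H2 measured automatically; 30 μM BES positive control, no-inhibitor negative control.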

Compound | inhibition at 50 µM (50 μM) [%] | inhibition at 10 µM (10 μM) [%] | also measured
CSc1ccc(C2=NN(C(=O)CCC(=O)O)C(c3ccc4nccnc4c3)C2)cc1 (centres unmarked) [Compound 62] | 31.8 | – | –
CC(C)(C)Oc1ccc(-c2ccc(C3=NN(C(=O)CCC(=O)O)C(c4ccc5nccnc5c4)C3)cc2)cc1 (centres unmarked) [Compound 81, 4-(3-(4′-(tert-Butoxy)-[1,1′-biphenyl]-4-yl)-5-(quinoxalin-6-yl)-4,5-dihydro-1H-pyrazol-1-yl)-4-oxobutanoic acid] | – | 29.8 ± 17.8 | –
O=C(CCC(=O)N1N=C(c2ccc(-c3ccccc3)cc2)CC1c1ccc2nccnc2c1)NS(=O)(=O)c1ccccc1 (centres unmarked) [Compound 123, 4-(3-([1,1′-Biphenyl]-4-yl)-5-(quinoxalin-6-yl)-4,5-dihydro-1H-pyrazol-1-yl)-4-oxo-N-(phenylsulfonyl) butanamide] | – | 77 ± 4.2 | inhibition at 2 µM (2 μM): 7.4 ± 0.7%
CS(=O)(=O)NC(=O)CCC(=O)N1N=C(c2ccc(-c3ccccc3)cc2)CC1c1ccc2nccnc2c1 (centres unmarked) [Compound 57, 4-(3-([1,1′-Biphenyl]-4-yl)-5-(quinoxalin-6-yl)-4,5-dihydro-1H-pyrazol-1-yl)-N-(methylsulfonyl)-4-oxobutanamide] | 89.7 ± 0.5 | 62.7 ± 4.4 | –
O=C(O)/C=C\C(=O)N1N=C(c2ccc(Cl)cc2)CC1c1ccc2nccnc2c1 (centres unmarked) [Compound 52, (Z)-4-(3-(4-Chlorophenyl)-5-(quinoxalin-6-yl)-4,5-dihydro-1H-pyrazol-1-yl)-4-oxobut-2-enoic acid] | 34.1 ± 1.3 | – | –
COCCOc1ccc(-c2ccc(C3=NN(C(=O)CCC(=O)O)C(c4ccc5nccnc5c4)C3)cc2)cc1 (centres unmarked) [Compound 91, 4-(3-(4′-(2-Methoxyethoxy)-[1,1′-biphenyl]-4-yl)-5-(quinoxalin-6-yl)-4,5-dihydro-1H-pyrazol-1-yl)-4-oxobutanoic acid] | – | 73.2 ± 2.8 | inhibition at 2 µM (2 μM): < 5%
Cc1ccc(S(=O)(=O)NC(=O)CCC(=O)N2N=C(c3ccc(Cl)cc3)CC2c2ccc3nccnc3c2)cc1 (centres unmarked) [Compound 125, 4-(3-(4-Chlorophenyl)-5-(quinoxalin-6-yl)-4,5-dihydro-1H-pyrazol-1-yl)-4-oxo-N-tosylbutanamide] | – | 21.8 ± 5.7 | –
CC(C)(C)S(=O)(=O)NC(=O)CCC(=O)N1N=C(c2ccc(Cl)cc2)CC1c1ccc2nccnc2c1 (centres unmarked) [Compound 121, N-(tert-Butylsulfonyl)-4-(3-(4-chlorophenyl)-5-(quinoxalin-6-yl)-4,5-dihydro-1H-pyrazol-1-yl)-4-oxobutanamide] | – | 9.8 ± 2.2 | –
Cc1ccccc1S(=O)(=O)NC(=O)CCC(=O)N1N=C(c2ccc(Cl)cc2)CC1c1ccc2nccnc2c1 (centres unmarked) [Compound 124, 4-(3-(4-Chlorophenyl)-5-(quinoxalin-6-yl)-4,5-dihydro-1H-pyrazol-1-yl)-4-oxo-N-(o-tolylsulfonyl) butanamide] | – | 12.7 ± 0.8 | –
O=C(O)CCC(=O)N1N=C(c2ccc(Cl)cc2)CC1c1ccc2nccnc2c1 (centres unmarked) [Compound 1, 4-(3-(4-Chlorophenyl)-5-(quinoxalin-6-yl)-4,5-dihydro-1H-pyrazol-1-yl)-4-oxobutanoic acid] | 37.6 ± 1.3 | – | –
O=C(O)CCCN1N=C(c2ccc(Cl)cc2)CC1c1ccc2nccnc2c1 (centres unmarked) [Compound 53, 4-(3-(4-Chlorophenyl)-5-(quinoxalin-6-yl)-4,5-dihydro-1H-pyrazol-1-yl)butanoic acid] | 82.1 ± 1.2 | 19.4 ± 1.9 | –
CC(C)Oc1ccc(-c2ccc(C3=NN(C(=O)CCC(=O)NS(=O)(=O)C(C)C)C(c4ccc5nccnc5c4)C3)cc2)cc1 (centres unmarked) [Compound 120, 4-(3-(4′-Isopropoxy-[1,1′-biphenyl]-4-yl)-5-(quinoxalin-6-yl)-4,5-dihydro-1H-pyrazol-1-yl)-N-(isopropylsulfonyl)-4-oxobutanamide] | – | 70.4 ± 5.5 | inhibition at 2 µM (2 μM): 12.6 ± 1.4%
O=C(O)CCC(=O)N1N=C(c2ccc(-c3ccc(OCC(F)(F)F)cc3)cc2)CC1c1ccc2nccnc2c1 (centres unmarked) [Compound 92, 4-Oxo-4-(5-(quinoxalin-6-yl)-3-(4′-(2,2,2-trifluoroethoxy)-[1,1′-biphenyl]-4-yl)-4,5-dihydro-1H-pyrazol-1-yl)butanoic acid] | – | 81.4 ± 3.1 | inhibition at 2 µM (2 μM): 32.1 ± 0.8%
COc1cc(C2CC(c3ccc(Cl)cc3)=NN2C(=O)CCC(=O)O)ccc1O (centres unmarked) [Compound 45, 4-(3-(4-Chlorophenyl)-5-(4-hydroxy-3-methoxyphenyl)-4,5-dihydro-1H-pyrazol-1-yl)-4-oxobutanoic acid] | 73.1 ± 8.6 | 9.9 ± 1.8 | –
O=C(O)CCC(=O)N1N=C(c2ccc(-c3ccoc3)cc2)CC1c1ccc2nccnc2c1 (centres unmarked) [Compound 108, 4-(3-(4-(Furan-3-yl)phenyl)-5-(quinoxalin-6-yl)-4,5-dihydro-1H-pyrazol-1-yl)-4-oxobutanoic acid] | 48.3 ± 2.8 | 6.3 ± 6.1 | –
O=C(O)c1ccc(N2N=C(c3ccc(Cl)cc3)CC2c2ccc3nccnc3c2)cc1 (centres unmarked) [Compound 115, 4-(3-(4-Chlorophenyl)-5-(quinoxalin-6-yl)-4,5-dihydro-1H-pyrazol-1-yl)benzoic acid] | 84 ± 10.6 | 20.1 ± 1.1 | –

Compound | inhibition at 50 µM (50 μM) [%] | inhibition at 10 µM (10 μM) [%] | also measured
CC(C)Sc1ccc(-c2ccc(C3=NN(C(=O)CCC(=O)O)C(c4ccc5nccnc5c4)C3)cc2)cc1 (centres unmarked) [Compound 93, 4-(3-(4′-(Isopropylthio)-[1,1′-biphenyl]-4-yl)-5-(quinoxalin-6-yl)-4,5-dihydro-1H-pyrazol-1-yl)-4-oxobutanoic acid] | – | 49.1 ± 10.8 | –
O=C(O)CCC(=O)N1N=C(c2ccc(-c3ccccc3)cc2)CC1c1ccc2nccnc2c1 (centres unmarked) [Compound 15, 4-(3-([1,1′-Biphenyl]-4-yl)-5-(quinoxalin-6-yl)-4,5-dihydro-1H-pyrazol-1-yl)-4-oxobutanoic acid] | 87.8 ± 1.6 | 60.1 ± 1 | inhibition at 2 µM (2 μM): < 5%
NC(=O)CCC(=O)N1N=C(c2ccc(Cl)cc2)CC1c1ccc2nccnc2c1 (centres unmarked) [Compound 113, 4-(3-(4-Chlorophenyl)-5-(quinoxalin-6-yl)-4,5-dihydro-1H-pyrazol-1-yl)-4-oxobutanamide] | 15.6 ± 0.4 | – | –
CCOc1ccc(-c2ccc(C3=NN(C(=O)CCC(=O)O)C(c4ccc5nccnc5c4)C3)cc2)cc1 (centres unmarked) [Compound 79, 4-(3-(4′-Ethoxy-[1,1′-biphenyl]-4-yl)-5-(quinoxalin-6-yl)-4,5-dihydro-1H-pyrazol-1-yl)-4-oxobutanoic acid] | – | 81.5 ± 0.1 | inhibition at 2 µM (2 μM): 25.2 ± 2.5%
CS(=O)(=O)NC(=O)CCC(=O)N1N=C(c2ccc(OC(F)(F)F)cc2)CC1c1ccc2nccnc2c1 (centres unmarked) [Compound 116, N-(Methylsulfonyl)-4-oxo-4-(5-(quinoxalin-6-yl)-3-(4-(trifluoromethoxy)phenyl)-4,5-dihydro-1H-pyrazol-1-yl) butanamide] | – | – | RIV % methane reduction +/− SD (2 μM): <5%; RIV % methane reduction +/− SD (10 μM): 72.4 ± 10.6%; RIV % methane reduction +/− SD (50 μM): 93.9 ± 4.7%
COc1ccc(C2CC(c3ccc(Cl)cc3)=NN2C(=O)CCC(=O)O)cc1OC (centres unmarked) [Compound 43, 4-(3-(4-Chlorophenyl)-5-(3,4-dimethoxyphenyl)-4,5-dihydro-1H-pyrazol-1-yl)-4-oxobutanoic acid] | 39.7 ± 7.2 | – | –
O=C(O)CCC(=O)N1N=C(c2ccc(-c3ccc(SC(F)(F)F)cc3)cc2)CC1c1ccc2nccnc2c1 (centres unmarked) [Compound 94, 4-Oxo-4-(5-(quinoxalin-6-yl)-3-(4′-((trifluoromethyl)thio)-[1,1′-biphenyl]-4-yl)-4,5-dihydro-1H-pyrazol-1-yl)butanoic acid] | – | 32.7 ± 1.2 | –
O=C(O)CCC(=O)N1N=C(c2ccc(C(F)(F)F)cc2)CC1c1ccc2nccnc2c1 (centres unmarked) [Compound 5, 4-Oxo-4-(5-(quinoxalin-6-yl)-3-(4-(trifluoromethyl)phenyl)-4,5-dihydro-1H-pyrazol-1-yl)butanoic acid] | 46.5 ± 2.7 | – | –
O=C(O)CCC(=O)N1N=C(c2ccc(-c3cc(F)cc(F)c3)cc2)CC1c1ccc2nccnc2c1 (centres unmarked) [Compound 66, 4-(3-(3′,5′-Difluoro-[1,1′-biphenyl]-4-yl)-5-(quinoxalin-6-yl)-4,5-dihydro-1H-pyrazol-1-yl)-4-oxobutanoic acid] | – | 85.4 | inhibition at 2 µM (2 μM): 17.5%
O=C(O)CCC(=O)N1N=C(c2ccc(-c3ccc(OC4CC4)cc3)cc2)CC1c1ccc2nccnc2c1 (centres unmarked) [Compound 84, 4-(3-(4′-Cyclopropoxy-[1,1′-biphenyl]-4-yl)-5-(quinoxalin-6-yl)-4,5-dihydro-1H-pyrazol-1-yl)-4-oxobutanoic acid] | – | 75.1 ± 4.2 | inhibition at 2 µM (2 μM): 9.8 ± 1%
COc1ccc(C2=NN(C(=O)CCC(=O)O)C(c3ccc4nccnc4c3)C2)cc1 (centres unmarked) [Compound 6, 4-(3-(4-Methoxyphenyl)-5-(quinoxalin-6-yl)-4,5-dihydro-1H-pyrazol-1-yl)-4-oxobutanoic acid] | 5.6 ± 2 | – | –
O=C(O)c1cccc(N2N=C(c3cccc(-c4ccccc4)c3)CC2c2ccc3nccnc3c2)c1 (centres unmarked) [Compound 114, 3-(3-([1,1′-Biphenyl]-3-yl)-5-(quinoxalin-6-yl)-4,5-dihydro-1H-pyrazol-1-yl)benzoic acid] | – | 58.3 ± 16.6 | –
O=C(O)CCC(=O)N1N=C(c2cccc(-c3ccc(OC(F)(F)F)cc3)c2)CC1c1ccc2nccnc2c1 (centres unmarked) [Compound 14, 4-Oxo-4-(5-(quinoxalin-6-yl)-3-(4′-(trifluoromethoxy)-[1,1′-biphenyl]-3-yl)-4,5-dihydro-1H-pyrazol-1-yl)butanoic acid] | 95.4 | 72.4 ± 0.8 | inhibition at 2 µM (2 μM): < 5%
O=S(=O)(O)CCBr [BES, bromoethanesulfonate, reference compound] | – | – | inhibition (methane, RIV positive control) (at 10 hours): 70.5%; inhibition (methane, RIV positive control) (at 18 hours): 55.6%
O=C(O)/C=C/C(=O)N1N=C(c2ccc(Cl)cc2)CC1c1ccc2nccnc2c1 (centres unmarked) [Compound 51, (E)-4-(3-(4-Chlorophenyl)-5-(quinoxalin-6-yl)-4,5-dihydro-1H-pyrazol-1-yl)-4-oxobut-2-enoic acid] | 57.1 ± 7.5 | – | –
